In one experiment the target is 5-HT1B (Rattus norvegicus, UniProt P28564). The experiment can be described thus: MDS Pharma serotonin receptor binding, 5-HT1B.
Experiment [1] has as its target human serotonin transporter (hSERT) (Homo sapiens, UniProt P31645). The experiment can be described thus: cell-based.
Another experiment deals with T1, 5-HT2C (Homo sapiens, UniProt P28335).
T1 sequence (P28335 33-458): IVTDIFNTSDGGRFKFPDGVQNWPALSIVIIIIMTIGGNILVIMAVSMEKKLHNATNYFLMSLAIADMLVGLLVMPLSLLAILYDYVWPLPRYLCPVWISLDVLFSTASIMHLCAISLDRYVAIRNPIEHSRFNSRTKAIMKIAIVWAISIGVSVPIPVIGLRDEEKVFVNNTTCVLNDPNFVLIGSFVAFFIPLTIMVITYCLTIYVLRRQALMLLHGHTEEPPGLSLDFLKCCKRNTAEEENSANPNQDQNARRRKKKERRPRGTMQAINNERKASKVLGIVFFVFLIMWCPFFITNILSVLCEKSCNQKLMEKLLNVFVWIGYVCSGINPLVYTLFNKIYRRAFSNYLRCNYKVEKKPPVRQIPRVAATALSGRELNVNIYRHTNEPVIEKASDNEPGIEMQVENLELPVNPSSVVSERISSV
Description: MDS Pharma serotonin receptor binding, 5-HT2C.

The next experiment addresses T2, 5-HT3 (Homo sapiens, UniProt P46098).
T2 sequence (P46098 24-478): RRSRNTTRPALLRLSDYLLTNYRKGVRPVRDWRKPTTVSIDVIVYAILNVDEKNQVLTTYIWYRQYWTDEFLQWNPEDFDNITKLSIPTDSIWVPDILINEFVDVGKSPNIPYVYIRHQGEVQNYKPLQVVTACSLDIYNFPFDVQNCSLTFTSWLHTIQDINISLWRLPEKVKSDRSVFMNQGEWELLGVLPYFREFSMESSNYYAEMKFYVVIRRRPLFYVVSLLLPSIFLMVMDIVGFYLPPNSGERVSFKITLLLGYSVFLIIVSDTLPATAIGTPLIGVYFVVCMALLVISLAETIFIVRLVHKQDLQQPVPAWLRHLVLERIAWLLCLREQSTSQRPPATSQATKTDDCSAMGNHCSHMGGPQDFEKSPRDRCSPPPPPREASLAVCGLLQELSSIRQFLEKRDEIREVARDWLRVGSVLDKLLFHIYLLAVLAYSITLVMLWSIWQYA
Description: MDS Pharma serotonin receptor binding, 5-HT3.

The next experiment concerns the target T3, 5-HT1A (Homo sapiens, UniProt P08908).
T3 sequence (P08908 1-422): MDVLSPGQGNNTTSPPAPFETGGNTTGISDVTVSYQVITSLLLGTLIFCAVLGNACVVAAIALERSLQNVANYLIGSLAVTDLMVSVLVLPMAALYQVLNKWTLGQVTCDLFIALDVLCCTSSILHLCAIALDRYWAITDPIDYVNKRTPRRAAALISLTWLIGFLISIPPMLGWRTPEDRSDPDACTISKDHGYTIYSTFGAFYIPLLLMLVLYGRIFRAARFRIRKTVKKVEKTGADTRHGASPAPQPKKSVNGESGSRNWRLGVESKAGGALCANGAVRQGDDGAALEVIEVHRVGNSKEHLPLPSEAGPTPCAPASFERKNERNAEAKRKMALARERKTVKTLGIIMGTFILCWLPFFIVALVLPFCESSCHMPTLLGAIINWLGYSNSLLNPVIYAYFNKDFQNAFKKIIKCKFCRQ
Description: MDS Pharma serotonin receptor binding, 5-HT1A.

A further experiment concerns the target 5-HT6 (Homo sapiens, UniProt P50406). Description: MDS Pharma serotonin receptor binding, 5-HT6.
In another experiment the target is 5-HT4 (Cavia porcellus, UniProt O70528). The experiment can be described thus: MDS Pharma serotonin receptor binding, 5-HT4.
Another experiment deals with 5-HT2B (Homo sapiens, UniProt P41595). The experiment can be described thus: MDS Pharma serotonin receptor binding, 5-HT2B.
For experiment [2], the target named is T4, 5-HT7 receptor (Homo sapiens, UniProt P34969). Description: 5-HT7 receptor competitive binding assay. As to conditions: for 5-HT7 competitive binding % Inhibition ± SD: tested at 50 μM, NA = not active.
For the next experiment, the target named is 5-HT5A (Homo sapiens, UniProt P47898). The experiment can be described thus: MDS Pharma serotonin receptor binding, 5-HT5A.
Experiment [3] concerns the target T4, 5-HT7 receptor. The experiment can be described thus: Intracellular cAMP assay in 5-HT7-transfected HEK293 cells. The format is cell-based. (Changes in cAMP serve as a functional read-out for many G protein-coupled receptors.)
Setting [4] is: read-out: 5-HT7 receptor binding IC50, pure compounds.

For orientation: IC50 means the midpoint of a concentration-inhibition curve. As a reminder, the EC50 is the concentration needed to bring the measured effect to its halfway point.

Like-named read-outs stand apart in the source and are kept apart here. Where only a bound is given, the exact number is not on record here.

In the case of `CNCCc1c[nH]c2ccc(O)cc12` [Nω-methylserotonin, 3-(2-Methylaminoethyl)indol-5-ol], the IC50 at 5-HT1B amounted to 15 nM; in experiment [1], 490 nM; on 5-HT2C it was 101 nM; on 5-HT3, 1670 nM; on 5-HT1A, 2 nM; at 5-HT6, 55 nM. Further, the concentration for half-maximal inhibition (IC50) turned out to be 6.7 µM on 5-HT4; 97 nM at 5-HT2B; 2.3e-05 µM on 5-HT7 receptor [2] (5-HT7 receptor binding IC50); 2e-05 µM at 5-HT7 receptor [2] (IC50, 5-HT7, triplicate in three independent experiments); 289 nM at 5-HT5A. This molecule displayed an EC50 at 5-HT7 receptor [3] of 22 nM. For the same molecule, the “maximum cAMP induction” value at 5-HT7 receptor [3] (at 100 nM, the highest tested concentration) is 43 pmol/mL.

In the case of `COc1cc(/C=C/C(=O)O[C@H](C(=O)O)[C@](O)(Cc2ccc(O)c(O)c2)C(=O)O)ccc1O` [Cimicifugic acid A, cimicifugic acid A], the half-inhibitory concentration (IC50) at 5-HT7 receptor [2] was over 500 µM.

As to Actein (R,S), the IC50 at 5-HT7 receptor [2] (setting [4]) is at least 100 µM.

On to `O=C(/C=C/c1ccc(O)c(O)c1)O[C@H](C(=O)O)[C@](O)(Cc1ccc(O)c(O)c1)C(=O)O` [fukinolic acid], for which, at 5-HT7 receptor [2], the IC50 was determined as 100 µM.

Consider 23-O-acetylshengmanol-3-β-D-xyloside, for which, on 5-HT7 receptor [2], the “5-HT7 competitive binding % Inhibition ± SD” value amounted to 35 ± 10%.

For 25-anhydrocimigenol-3-O- β-xyloside, on 5-HT7 receptor [2], the “5-HT7 competitive binding % Inhibition ± SD” value is 31 ± 8%.

As to `CC(=O)O[C@@H]1C[C@@]23C[C@@]24CC[C@H](O[C@@H]2OC[C@@H](O)[C@H](O)[C@H]2O)C(C)(C)[C@@H]4CC[C@H]3[C@]2(C)C[C@@H]3O[C@]4(C[C@@H](C)[C@@H]3[C@@]12C)OC[C@@]1(C)O[C@@H]41` [26-deoxyactein], the 50% inhibitory concentration (IC50) at 5-HT7 receptor [2] (setting [4]) is at least 100 µM. For the same molecule, the “5-HT7 competitive binding % Inhibition ± SD” value on 5-HT7 receptor [2] turned out to be 38 ± 4%.

In the case of `CC(=O)O[C@@H]1C[C@@]23C[C@@]24CC[C@H](O[C@@H]2OC[C@H](O)[C@H](O)[C@H]2O)C(C)(C)[C@@H]4CC[C@H]3[C@]2(C)C[C@@H]3O[C@]4(C[C@@H](C)[C@@H]3[C@@]12C)OC[C@]1(C)O[C@H]41` [Cimiracemoside N], the “5-HT7 competitive binding % Inhibition ± SD” value on 5-HT7 receptor [2] is on record as 18 ± 4%.

`CC(=O)O[C@@H]1C[C@@]23C[C@@]24CC[C@H](O[C@@H]2OC[C@@H](O)[C@H](O)[C@H]2O)C(C)(C)[C@@H]4CC[C@H]3[C@]2(C)C[C@@H]3O[C@@]4(C[C@@H](C)[C@@H]3[C@@]12C)OC[C@@]1(C)O[C@@H]41` [23-epi-26-deoxyactein]: the concentration for half-maximal inhibition (IC50) at 5-HT7 receptor [2] (setting [4]) was at least 100 µM.

On 5-HT7 receptor [2], `COc1ccc(/C=C/C(=O)O[C@H](C(=O)O)[C@](O)(Cc2ccc(O)c(O)c2)C(=O)O)cc1O` [Cimicifugic acid B, cimicifugic acid B] displayed a concentration for half-maximal inhibition (IC50) of over 500 µM.

`COc1cc(/C=C/C(=O)O[C@H](C(=O)O)[C@](O)(Cc2ccc(O)cc2)C(=O)O)ccc1O` [Cimicifugic acid E, cimicifugic acid E]: at 5-HT7 receptor [2], the IC50 was over 500 µM.

Consider `COc1ccc(/C=C/C(=O)O[C@H](C(=O)O)[C@](O)(Cc2ccc(O)cc2)C(=O)O)cc1O` [Cimicifugic acid F, cimicifugic acid F], for which the IC50 on 5-HT7 receptor [2] was over 500 µM.

Turning to `CC(=O)O[C@@H]1CO[C@@H](O[C@H]2CC[C@]34C[C@]35C[C@@H](OC(C)=O)[C@]3(C)[C@H]6[C@H](C)C[C@]7(OC(O)[C@]8(C)O[C@H]78)O[C@H]6C[C@@]3(C)[C@@H]5CC[C@H]4C2(C)C)[C@H](O)[C@H]1O` (stereo partly drawn) [Cimiracemoside O], the “5-HT7 competitive binding % Inhibition ± SD” value at 5-HT7 receptor [2] was 19 ± 5%.

The record behind these values is article PMC3684073 (Journal of agricultural and food chemistry, 2008).
